We go through 20 molecules from US8471004B2, “Bicyclic compounds” (Hoffman-La Roche Inc., priority 2009, dated 2013).

This assay deals with T1, human chemokine receptor 2 isoform B (Homo sapiens, UniProt P41597).
T1 construct: host or cells: CHOK1-CCR2B-A5 (CHO-K1)
T1 sequence (P41597 1-360 isoform P41597-2): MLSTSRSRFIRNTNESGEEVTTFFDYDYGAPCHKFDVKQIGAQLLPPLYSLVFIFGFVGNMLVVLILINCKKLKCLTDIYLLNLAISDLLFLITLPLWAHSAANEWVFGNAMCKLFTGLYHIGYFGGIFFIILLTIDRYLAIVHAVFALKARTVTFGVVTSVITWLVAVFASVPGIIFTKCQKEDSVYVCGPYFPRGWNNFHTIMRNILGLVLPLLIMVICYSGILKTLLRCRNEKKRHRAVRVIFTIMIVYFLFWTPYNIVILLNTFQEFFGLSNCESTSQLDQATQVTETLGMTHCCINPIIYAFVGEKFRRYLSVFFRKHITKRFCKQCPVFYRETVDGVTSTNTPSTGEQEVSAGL
The assay can be described thus: Calcium mobilization assay (CHOK1-CCR2B-A5 cells, FLIPR, MCP-1 stimulated). The assay is classed as cell-based. The conditions noted are these: Ca mobilisation assay for CCR2, antagonist activity, 50% inhibition of specific calcium increases after 20 nM MCP-1. On the procedure:
CHOK1-CCR2B-A5 cells (from Euroscreen) stably overexpressing the human chemokine receptor 2 isoform B were cultured in Nutrient Hams F12 medium supplemented with 5% FBS, 100 U/ml penicillin, 100 μg/ml streptomycin, 400 μg/ml G418 and 5 μg/ml puromycin.
For the assay cells were grown overnight in 384-well black clear flat bottom polystyrene plates (Costar) at 37° C. at 5% CO2. After washing with DMEM, 20 mM Hepes, 2.5 mM probenecid, 0.1% BSA (DMEM assay buffer) cells were loaded with 4 μM Fluo-4 in the same DMEM assay buffer for 2 hours at 30° C. Excess dye was removed and cells were washed with DMEM assay buffer. 384-well compound plates were prepared with DMEM assay buffer/0.5% DMSO with or without various concentrations of test compounds. Usually compounds were tested for agonist and antagonist activity.
Test compounds were added to the assay plate and agonist activity was monitored as fluorescence for 80 seconds with a FLIPR (488 nm excitation; 510-570 nm emission; Molecular Devices). After 20-30 min. of incubation at 30° C., 20 nM MCP-1 (R&D; Roche) was added and fluorescence was monitored again for 80 seconds. Increases in intracellular calcium are reported as maximum fluorescence after agonist exposure minus basal fluorescence before exposure. Antagonist activity is indicated as inhibitor concentration required for 50% inhibition of specific calcium increases.
As to `C[C@H]1C(=O)N2[C@@H](CCC(=O)N3CCC4(CC4)[C@H](O)C3)CC[C@H]2CN1C(=O)Nc1ccc(C(F)(F)F)c(Cl)c1` [Example 43, (3S,6R,8aS)-6-[3-((S)-4-Hydroxy-6-aza-spiro[2.5]oct-6-yl)-3-oxo-propyl]-3-methyl-4-oxo-hexahydro-pyrrolo[1,2-a]pyrazine-2-carboxylic acid (3-chloro-4-trifluoromethyl-phenyl)-amide], the IC50 stood at 20.5 nM. The value for `C[C@H]1C(=O)N2C(CN1C(=O)Nc1ccc(Cl)c(Cl)c1)OC[C@@H]2CCC(=O)N1CCC2(CC2)[C@H](O)C1` (stereo partly drawn) [Example 23, (3S,6S)-3-[3-((S)-4-Hydroxy-6-aza-spiro[2.5]oct-6-yl)-3-oxo-propyl]-6-methyl-5-oxo-hexahydro-oxazolo[3,2-a]pyrazine-7-carboxylic acid (3,4-dichloro-phenyl)-amide] was 14.4 nM; that for `C[C@H]1C(=O)N2[C@@H](CCC(=O)N3CCC4(CC4)[C@H](O)C3)CO[C@@H]2CN1C(=O)Nc1ccc(C(F)(F)F)c(Cl)c1` [Example 24, (3S,6S,8aR)-3-[3-((S)-4-Hydroxy-6-aza-spiro[2.5]oct-6-yl)-3-oxo-propyl]-6-methyl-5-oxo-hexahydro-oxazolo[3,2-a]pyrazine-7-carboxylic acid (3-chloro-4-trifluoromethyl-phenyl)-amide] was 5.5 nM; that for `C[C@H]1C(=O)N2C(CN1C(=O)Nc1cccc(Cl)c1)OC[C@@H]2CCCN1CCC2(CC2)[C@H](O)C1` (stereo partly drawn) [Example 15, (3S,6S)-3-[3-((S)-4-Hydroxy-6-aza-spiro[2.5]oct-6-yl)-propyl]-6-methyl-5-oxo-hexahydro-oxazolo[3,2-a]pyrazine-7-carboxylic acid (3-chloro-phenyl)-amide] was 32.8 nM.

Turning to `C[C@H]1C(=O)N2[C@@H](CCCN3CCC4(CC4)[C@H](O)C3)CO[C@H]2CN1C(=O)Nc1cccc(Cl)c1` [Example 19, (3S,6S,8aS)-3-[3-((S)-4-Hydroxy-6-aza-spiro[2.5]oct-6-yl)-propyl]-6-methyl-5-oxo-hexahydro-oxazolo[3,2-a]pyrazine-7-carboxylic acid (3-chloro-phenyl)-amide], the IC50 worked out at 33.4 nM. Consider `C[C@H]1C(=O)N2C(CN1C(=O)Nc1ccc(Cl)c(Cl)c1)OCC[C@H]2CN1CCC2(CC2)[C@H](O)C1` (stereo partly drawn) [Example 30, (4S,7S)-4-((S)-4-Hydroxy-6-aza-spiro[2.5]oct-6-ylmethyl)-7-methyl-6-oxo-hexahydro-pyrazino[2,1-b][1,3]oxazine-8-carboxylic acid (3,4-dichloro-phenyl)-amide], for which the 50% inhibitory concentration (IC50) amounted to 1.5 nM.

`C[C@H]1C(=O)N2[C@@H](CCN3CCC4(CC4)[C@H](O)C3)CCC[C@H]2CN1C(=O)Nc1cccc(F)c1` [Example 67, (3S,6R,9aS)-6-[2-((S)-4-Hydroxy-6-aza-spiro[2.5]oct-6-yl)-ethyl]-3-methyl-4-oxo-octahydro-pyrido[1,2-a]pyrazine-2-carboxylic acid (3-fluoro-phenyl)-amide]: the IC50 came out at 7.9 nM. `C[C@H]1C(=O)N2[C@@H](CCN3CCC4(CC4)[C@H](O)C3)CCC[C@H]2CN1C(=O)Nc1ccc(Cl)c(Cl)c1` [Example 65, (3S,6R,9aS)-6-[2-((S)-4-Hydroxy-6-aza-spiro[2.5]oct-6-yl)-ethyl]-3-methyl-4-oxo-octahydro-pyrido[1,2-a]pyrazine-2-carboxylic acid (3,4-dichloro-phenyl)-amide]: the IC50 was found to be 2.2 nM. The value for `C[C@H]1C(=O)N2[C@@H](CCCN3CCC4(CC4)[C@H](O)C3)CO[C@H]2CN1C(=O)Nc1ccc(Cl)c(Cl)c1` [Example 17, (3S,6S,8aS)-3-[3-((S)-4-Hydroxy-6-aza-spiro[2.5]oct-6-yl)-propyl]-6-methyl-5-oxo-hexahydro-oxazolo[3,2-a]pyrazine-7-carboxylic acid (3,4-dichloro-phenyl)-amide] was 2.9 nM. On to `C[C@H]1C(=O)N2C(CN1C(=O)Nc1cccc(Cl)c1)OC[C@@H]2CCN1CCC2(CC2)[C@H](O)C1` (stereo partly drawn) [Example 3, (3S,6S)-3-[2-((S)-4-Hydroxy-6-aza-spiro[2.5]oct-6-yl)-ethyl]-6-methyl-5-oxo-hexahydro-oxazolo[3,2-a]pyrazine-7-carboxylic acid (3-chloro-phenyl)-amide], for which the IC50 was 60.4 nM. The value for `C[C@H]1C(=O)N2[C@@H](CCN3CCC4(CC4)[C@H](O)C3)CO[C@]2(C)CN1C(=O)Nc1ccc(Cl)c(Cl)c1` [Example 14, (3S,6S,8aR)-3-[2-((S)-4-Hydroxy-6-aza-spiro[2.5]oct-6-yl)-ethyl]-6,8a-dimethyl-5-oxo-hexahydro-oxazolo[3,2-a]pyrazine-7-carboxylic acid (3,4-dichloro-phenyl)-amide] was 11.1 nM; that for `C[C@H]1C(=O)N2[C@H](CCN3CCC4(CC4)[C@H](O)C3)CCC[C@@H]2CN1C(=O)Nc1ccc(Cl)c(Cl)c1` (racemic) [Example 38, (3S,9aR)-6-[2-((S)-4-Hydroxy-6-aza-spiro[2.5]oct-6-yl)-ethyl]-3-methyl-4-oxo-octahydro-pyrido[1,2-a]pyrazine-2-carboxylic acid (3,4-dichloro-phenyl)-amide] was 8.8 nM; that for `C[C@H]1C(=O)N2[C@@H](CCN3CCC(F)(F)CC3)COC[C@H]2CN1C(=O)Nc1ccc(C(F)(F)F)c(Cl)c1` [Example 57, (4S,7S,9aR)—N-(3-chloro-4-(trifluoromethyl)phenyl)-4-(2-(4,4-difluoropiperidin-1-yl)ethyl)-7-methyl-6-oxohexahydropyrazino[2,1-c][1,4]oxazine-8(1H)-carboxamide] was 119 nM. With `C[C@H]1C(=O)N2[C@@H](CCN3CCC4(CC4)C(F)(F)C3)COC[C@H]2CN1C(=O)Nc1cccc(Cl)c1` [Example 54, (4S,7S,9aR)—N-(3-chlorophenyl)-4-(2-(4,4-difluoro-6-azaspiro[2.5]octan-6-yl)ethyl)-7-methyl-6-oxohexahydropyrazino[2,1-c][1,4]oxazine-8(1H)-carboxamide], the IC50 came to 170 nM. For the molecule `C[C@H]1C(=O)N2C(CN1C(=O)Nc1ccc(Cl)c(Cl)c1)OC[C@@H]2CC(=O)N1CCC2(CC2)[C@H](O)C1` (stereo partly drawn) [Example 29, (3S,6S)-3-[2-((S)-4-Hydroxy-6-aza-spiro[2.5]oct-6-yl)-2-oxo-ethyl]-6-methyl-5-oxo-hexahydro-oxazolo[3,2-a]pyrazine-7-carboxylic acid (3,4-dichloro-phenyl)-amide], the IC50 worked out at 774 nM. The value for `C[C@H]1C(=O)N2[C@@H](CCCN3CC(F)(F)C(F)(F)C3)CC[C@H]2CN1C(=O)Nc1ccc(Cl)c(Cl)c1` [Example 44, (3S,6S,8aS)-3-Methyl-4-oxo-6-[3-(3,3,4,4-tetrafluoro-pyrrolidin-1-yl)-propyl]-hexahydro-pyrrolo[1,2-a]pyrazine-2-carboxylic acid (3,4-dichloro-phenyl)-amide] was 473 nM; that for `C[C@H]1C(=O)N2[C@@H](CCCN3CCCC(F)(F)C3)CC[C@H]2CN1C(=O)Nc1ccc(Cl)c(Cl)c1` [Example 47, (3S,6S,8aS)-6-[3-(3,3-Difluoro-piperidin-1-yl)-propyl]-3-methyl-4-oxo-hexahydro-pyrrolo[1,2-a]pyrazine-2-carboxylic acid (3,4-dichloro-phenyl)-amide] was 67.4 nM; that for `C[C@H]1C(=O)N2[C@@H](CCN3CCC4(CC4)[C@H](O)C3)CCC[C@H]2CN1C(=O)Nc1cccc(Cl)c1` [Example 66, (3S,6R,9aS)-6-[2-((S)-4-Hydroxy-6-aza-spiro[2.5]oct-6-yl)-ethyl]-3-methyl-4-oxo-octahydro-pyrido[1,2-a]pyrazine-2-carboxylic acid (3-chloro-phenyl)-amide] was 3 nM. The value for `C[C@H]1C(=O)N2[C@@H](CCC(=O)N3CCC4(CC4)[C@H](O)C3)CCC[C@H]2CN1C(=O)Nc1ccc(C(F)(F)F)c(Cl)c1` [Example 64, (3S,6R,9aS)-6-[3-((S)-4-Hydroxy-6-aza-spiro[2.5]oct-6-yl)-3-oxo-propyl]-3-methyl-4-oxo-octahydro-pyrido[1,2-a]pyrazine-2-carboxylic acid (3-chloro-4-trifluoromethyl-phenyl)-amide] was 14.3 nM; that for `C[C@H]1C(=O)N2[C@@H](CCN3CCC4(CC4)[C@H](O)C3)CO[C@H]2CN1C(=O)Nc1ccc(Cl)c(Cl)c1` [Example 1, (3S,6S,8aS)-3-[2-((S)-4-Hydroxy-6-aza-spiro[2.5]oct-6-yl)-ethyl]-6-methyl-5-oxo-hexahydro-oxazolo[3,2-a]pyrazine-7-carboxylic acid (3,4-dichloro-phenyl)-amide] was 5.8 nM.

The IC50 is the point on the concentration scale where inhibition reaches its midpoint.
